Patent publication US6190848A, “Color photographic element containing ballasted triazole derivative and inhibitor releasing coupler” (priority 1999, dated 2001)

How the values were obtained:
[1] = Single layer film element contrast (gamma) reduction by DI(A)R couplers, KODAK FLEXICOLOR C-41; conditions: DIR tested at 0.055 mmol/m^2, relative to non-inhibitor containing check
Text: The mild inhibitor fragments that are used in this invention are defined as those that cause less than a 45% gamma reduction, or more preferably less than a 40% gamma reduction, relative to a non-inhibitor containing check when coated as the following single layer film element on a cellulose triacetate film support (coverages are in g/m^2):
Overcoat Gelatin at 2.79 and 0.02 bis-vinylsulfonemethylether
Imaging Layer Gelatin at 2.79
Magenta Image Coupler M-1 (dispersed at 80% by
weight in tricresyl phosphate and 20% by weight
N,N-dibutyl-2-butoxy-5-t-octylaniline) at 0.692
DIR being tested at 0.055 mmol/m^2 ( dispersed in twice
its weight in N,N-dibutyllauramide)
Green sensitized AgBrI at 1.08
Samples of each element were given a stepped exposure and processed in the KODAK FLEXICOLOR™ (C-41) process as described in British Journal of Photography Annual, 1988, pp 196-198. Contrast of the elements was determined using the maximum slope between any two density points.

[2] = Bilayer photographic element: interimage (Cg/Cb+g) and relative green sensitivity; conditions: for Cg /Cb+g (interimage ratio): Table II, IDIR-2 in blue layer, IEM or CIEM at 7.2×10^-3 mmol/m^2; for interimage effect: bilayer, --N--H group removed
Procedure: Bilayer photographic elements were prepared by coating the following layers on a cellulose triacetate film support (coverages are in g/m^2). Unless otherwise noted, all comparative and inventive compounds were dispersed in twice their own weight of N,N-dibutyllauramide:
Layer 1 (Antihalation Layer): black colloidal elemental silver at 0.34 and gelatin at2.41.
Layer 2 (Receiver Layer): gelatin at 2.79, CDIR-2 at 0.03, coupler M-1 (dispersed as described previously) added at 0.045, comparison material (CIEM) or IEM added at 7.2×10^-3 mmol/m^2 (this corresponds to 1.67 mmol per mole silver as AgBr or 0.96 mmol per mole of silver) dispersed in twice its own weight of N,N-dibutyllauramide and 0.81 green sensitized AgIBr tabular emulsion.
Layer 3 (Interlayer): gelatin at 0.64, ILS-1 at 0.11 and FD-1 at 0.11.
Layer 4 (Causer Layer): gelatin at 2.79, coupler Y-1 at 0.91, 0.79 blue sensitized AgIBr tabular emulsion and the DIR at 0.11 mmol/m^2.
Layer 5 (Overcoat): gelatin at 2.79 and 0.02 bis-vinylsulfonemethylether.
Samples of each element were given a stepped exposure of either green light only or blue and green light combined and processed in the KODAK FLEXICOLOR (C-41) process as described in British Journal of Photography Annual, 1988, pp196-198. Contrast of the elements was determined using the maximum slope between any two density points. In this test, the ratio of the contrast of the green only exposure to the contrast of the green of a blue and green exposure (Cg /Cb+g) is a measure of the interimage. A higher ratio means more inhibition originating from the blue and affecting the green record.
Another set of bilayer experiments were generated in a similar manner to show the effect of IEM laydown (as mmol per mol silver) and DIR variations.

Row | SMILES | % Contrast Reduction [1] [%] | Cg /Cb+g (interimage ratio) [2] | interimage effect [2]
1 | CCCCCCCCCCCCCCOc1ccccc1NC(=O)c1cc(Oc2ccc(CSc3nnnn3Cc3ccc(OC)cc3)cc2[N+](=O)[O-])c2ccccc2c1O [CDIR-1] | -55.4 |  | 
2 | CCC(Oc1ccc(C(C)(C)CC)cc1C(C)(C)CC)C(=O)Nc1ccc(N2N=C(N3CCCC3)C(Sc3nnnn3-c3ccccc3)C2=O)cc1 (stereo not shown) [CDIR-2] | -67.1 |  | 
3 | CCCCCCCCCCCCCCOc1ccccc1NC(=O)c1cc(Oc2ccc([N+](=O)[O-])cc2CN(C(=O)Sc2nnnn2-c2ccccc2)C(C)C)c2ccccc2c1O [CDIR-3] | -75.7 |  | 
4 | CCCCCCCCCCCCCCOc1ccccc1NC(=O)c1cc(Oc2ccc(CSc3nnnn3-c3ccccc3)cc2[N+](=O)[O-])c2ccccc2c1O [CDIR-4] | -77.1 |  | 
5 | CCCCCCCCCCCCCCOc1ccccc1NC(=O)c1cc(Oc2ccc(CSc3nnnn3-c3ccccc3)cc2[N+](=O)[O-])c2ccccc2c1O [CDIR-5] | -70.5 |  | 
6 | CCCCCCCCCCCCCCOc1ccccc1NC(=O)c1cc(Sc2nnnn2-c2ccccc2)c2ccccc2c1O [CDIR-6] | -75.4 |  | 
7 | CCCCCCCCCCCCCCCCS(=O)(=O)Nc1ccc(Cl)c(NC(=O)C(Oc2ccc([N+](=O)[O-])cc2CN(CC)C(=O)Sc2nnnn2-c2ccccc2)C(=O)C(C)(C)C)c1 (stereo not shown) [CDIR-7] | -63.9 |  | 
8 | CCCCCCOC(=O)c1nn(C2C(=O)N(c3ccc(NC(=O)C(CC)Oc4ccc(C(C)(C)CC)cc4C(C)(C)CC)cc3)N=C2C)nc1C (stereo not shown) [CDIR-8] | -49.2 |  | 
9 | CCCCCCCCCCC(Oc1ccc(S(=O)(=O)c2ccc(O)cc2)cc1)C(=O)Nc1ccc(N2N=C(C)C(n3nc(C)c(C(=O)OCCCCCC)n3)C2=O)cc1 (stereo not shown) [CDIR-9] | -50.1 |  | 
10 | CCCCCCCCCCCCCCCCS(=O)(=O)Nc1ccc(Cl)c(NC(=O)C(C(=O)C(C)(C)C)n2nc(C)c(C(=O)OCCCCCC)n2)c1 (stereo not shown) [CDIR-10] | -53.8 |  | 
11 | CCCCCCCCCCCCCCCCS(=O)(=O)Nc1ccc(Cl)c(NC(=O)C(C(=O)C(C)(C)C)n2ncc(SCC(=O)OCCCCCC)n2)c1 (stereo not shown) [CDIR-11] | -58.6 |  | 
12 | CCCCCCCC(=O)Nc1ccc2[nH]nnc2c1 [CIEM-1] |  | 1.25 | 
13 | CCCCC(CC)CNC(=O)c1ccc2[nH]nnc2c1 (stereo not shown) [CIEM-2] |  | 1.26 | 
14 | CCCCCCCCCOC(=O)c1nc[nH]n1 [CIEM-3] |  | 1.23 | 
15 | CCCCCCSCCOC(=O)c1nc[nH]n1 [CIEM-4] |  | 1.19 | 
16 | CCCCCCCCc1nc2ccccc2[nH]1 [CIEM-5] |  | 1.19 | 
17 | O=S(=O)(NCCc1ccccc1)c1ccc2[nH]nnc2c1 [CIEM-6] |  | 1.24 | 
18 | CCCSCCCOC(=O)c1ccc2[nH]nnc2c1 [CIEM-7] |  | 1.26 | 
19 | CCCCCCCCCCOC(=O)CSc1nnc[nH]1 [CIEM-8] |  | 1.22 | 

Row | SMILES | % Contrast Reduction [1] [%] | Cg /Cb+g (interimage ratio) [2] | interimage effect [2]
20 | O=C(Nc1cccc(Oc2ccccc2)c1)c1ccc2[nH]nnc2c1 [CIEM-9] |  | 1.30 | 
21 | O=C(c1ccc2[nH]nnc2c1)N1CCCc2ccccc21 [CIEM-10] |  | 1.18 | 
22 | CCCCc1ccc(NC(=O)c2ccc3[nH]nnc3c2)cc1 [CIEM-11] |  | 1.26 | 
23 | O=C(Oc1ccccc1)c1ccc2[nH]nnc2c1 [CIEM-12] |  | 1.24 | 
24 | CCC(C)(C)c1ccc(OCCCCC(=O)Nc2ccc3c(c2)nnn3C(=O)N2CCOCC2)c(C(C)(C)CC)c1 [CIEM-13] |  | 1.30 | the effect is insufficient
25 | CCC(C)(C)c1ccc(OCCCCC(=O)Nc2ccc3c(c2)nnn3C)c(C(C)(C)CC)c1 [CIEM-14] |  | 1.31 | the effect is insufficient
26 | CCCCCCCCCCCCCCCc1cccc(OCCCCNC(=O)c2ccc3[nH]nnc3c2)c1 [CIEM-15] |  | 1.26 | 
27 | CCCCCCCCCCCCSc1nc2ccccc2[nH]1 [CIEM-16] |  | 1.27 | 
28 | CCC(C)(C)c1ccc(OCCCCNC(=O)CSc2nc3ccccc3[nH]2)c(C(C)(C)CC)c1 [CIEM-17] |  | 1.23 | 
29 | CCCCCCCCCCCCCCCCS(=O)(=O)Nc1cc(CSc2nnnn2CC(=O)OCCC)ccc1Oc1cc(C(N)=O)c(O)c2ccccc12 [IDIR-1] | -34.5 |  | 
30 | CCCCCCCCCCCCCCCCS(=O)(=O)Nc1ccc(Cl)c(NC(=O)C(Oc2ccc([N+](=O)[O-])cc2CN(CC)C(=O)Sc2nnnn2CC(=O)OCCC)C(=O)C(C)(C)C)c1 (stereo not shown) [IDIR-2] | -25.3 |  | 
31 | CCCCCCCCCCCCOc1ccc(C)cc1NC(=O)c1cc(Oc2ccc(CSc3nnnn3CC(=O)OCCC)cc2[N+](=O)[O-])c2ccccc2c1O [IDIR-3] | -24.5 |  | 
32 | CCCOC(=O)Cn1nnnc1SC1C(=O)N(c2ccc(NC(=O)C(CC)Oc3ccc(C(C)(C)CC)cc3C(C)(C)CC)cc2)N=C1N1CCCC1 (stereo not shown) [IDIR-4] | -22.6 |  | 
33 | CCCCCCCCCCCCOC(=O)C(C)OC(=O)c1ccc(Cl)c(NC(=O)C(C(=O)Nc2cc(C(=O)OC(C)C(=O)OCCCCCCCCCCCC)ccc2Cl)n2nnc3cc(Cl)c(Cl)cc32)c1 (stereo not shown) [IDIR-7] | -20.0 |  | 
34 | CCCCCCCCCCCCCCOc1ccccc1NC(=O)c1cc(Sc2nnnn2CC)c2ccccc2c1O [IDIR-8] | -2.4 |  | 
35 | CCCCCCCCCC(=O)Nc1ccc2[nH]nnc2c1 [IEM-B] |  | 1.39 | 
36 | CCCCCCCCCCCC(=O)Nc1ccc2[nH]nnc2c1 [IEM-C] |  | 1.64 | 
37 | CCCCCCCCCCC(Oc1ccc(S(=O)(=O)c2ccc(O)cc2)cc1)C(=O)Nc1ccc2[nH]nnc2c1 (stereo not shown) [IEM-D] |  | 1.49 | 
38 | CCCCCCCCCCCCSc1nc[nH]n1 [IEM-H] |  | 1.44 | 
